Assay results taken from patent US20200253979A1, “THERAPEUTIC METHODS RELATING TO HSP90 INHIBITORS” (AI Therapeutics, Inc., priority 2017, published 2020).

Key:
MV-4-11 cells (FLT3-ITD) = experiment: CellTiter-Glo cell viability (single agent and combination); format: cell-based; details: MV-4-11, MPC-0767 1 μM, 72 hours
Procedure: Three cell lines which harbor FLT3-ITD were used for the drug combination studies (MV-4-11, MOLM-13, and MOLM-14).
Cells were treated with the drugs (single agent or combination) for 72 hours. Drug combination activity was determined by first measuring cell viability with CellTiter-Glo®, followed by the calculation of the EC50 corresponding to single agent activity, using the R DRC package (R Core Team, 2017). The combination index (CI) values were computed using the Chou-Talalay method (Chou T, Cancer Research., 2010 70(2): 440-6.), based on the viability of each drug alone and in combination, across all concentrations tested. In brief, CI was defined as: […]
Loss of function mutations of KDM6A are observed in FLT3-ITD AML (Garg et al., 2015 Blood 126 (22):2491-501). […] To therapeutically exploit this finding, we hypothesized that inhibiting EZH2, the histone H3K27 methyltransferase that functionally opposes KDM6A, would enhance sensitivity to MPC-0767. To test this hypothesis, a FLT3-ITD cell line (MV-4-11) was used and treated with either of the two clinical stage EZH2 inhibitors, EPZ-6438 and CPI-1205, at 8 different concentrations for 4 days. Following this time, cells were counted, reseeded and treated with 8 concentrations of EZH2 inhibitor alone, 8 concentrations of MPC-0767 alone, or the combination of the two (64 total combinations).

[1] = test system: MV-4-11 cell line (AML FLT3-ITD) xenograft; experiment: Subcutaneous MV-4-11 xenograft study; details: oral, 200 mg/kg QD×2 days then 150 mg/kg QD×15 days
Procedure: Each mouse was inoculated subcutaneously in the right flank with 5×10^6 tumor cells in 0.1 ml PBS/Matrigel (1:1). When the mean tumor volume reached 91 mm^3 in size, mice were randomized into 2 groups of 10. […] Tumor measurements (caliper) were taken on the indicated days. […] Student t-test was used to evaluate the statistical significance of the difference between these groups P<0.0001.

[2] = test system: PD-1+ Jurkat reporter cells with THP-1 AML cells; experiment: Jurkat NFAT-luciferase reporter T cell activation with THP-1 cells; format: cell-based; details: THP-1 treated overnight with IFNγ and MPC-0767 1 μM or 2 uM
Text: The addition of antibodies that block the PD-1/PD-L1 pathway stimulate an increased T cell response in vitro, in pre-clinical animal models, and in cancer patients. This can lead to tumor regressions or tumor clearance in patients. To examine MPC-0767 effects on PD-L1 and T cell activation, we used a model system in which PD-1+ Jurkat T cells express luciferase under the control of the NFAT promoter (Promega, hereafter referred to Jurkat reporter cells). When T cells are stimulated through the T cell receptor (TCR), activation of the NFAT pathway drives expression of luciferase.
We next determined whether MPC-0767 reduction of PD-L1 could increase T cell stimulation similar to anti-PD-L1 blocking antibodies. THP-1 cells were treated overnight with IFNγ in the presence or absence of MPC-0767 (1 μM or 2 uM). THP-1 cells were washed and a portion saved for flow cytometry analysis of PD-L1 expression. The remaining cells were incubated with Jurkat reporter cells and anti-CD3 (10 ng/ml) for 6 hours.

[3] = test system: PD-L1 on tumor infiltrating leukocytes (CD45+, CD3−); experiment: PD-L1 on tumor infiltrating leukocytes in MC38 tumors; format: in vivo, mouse; details: 150 mg/kg QD×7
Procedure: To test if MPC-0767 may induce an anti-tumor immune response in addition to direct cytotoxic activity, down regulation of PD-Ll and the effector/regulatory T-cell ratio was measured in the same MC38 syngeneic model. On day 21, when the average tumor volume was 372 mm^3 in size, a second group of mice (n=6) was treated with 150 mg/kg MPC-0767 QD×7. One day post the last dose (day 28 post inoculation) tumors were harvested from the vehicle and 150 mg/kg MPC-0767 QD×7 group. Tumor infiltrating leukocytes (CD45^+, CD3^−) within the dissociated tumors were analyzed for PD-L1 expression by flow cytometry.

[4] = test system: MOLM-13 FLT3-ITD AML cell line; experiment: Systemic survival xenograft study, MPC-0767 single agent; details: vs vehicle
Procedure: Statistical significance was calculated using Log Rank (Mantel-Cox) test.
Before tumor cell inoculation, NOD/SCID mice were pre-treated for 2 days with a daily intraperitoneal injection of 100 mg/kg cyclophosphamide to facilitate engraftment of the human MOLM-13 tumor cells. After the injection of cyclophosphamide, the animals were allowed to recover for 24 hours prior to inoculation with human MOLM-13 tumor cells. Each mouse was then inoculated with 1×10^7 MOLM-13 cells in 100 μL PBS via intravenous tail vein injection. Mice were next randomized into 3 groups of 6. […] Viability and body weight loss were monitored daily.

Parental BaF3 cells = experiment: CellTiter-Glo cell viability; format: cell-based, murine; details: Mus musculus; parental BaF3, 72 hours
Text: (§1) To determine whether MPC-0767 can also promote degradation of an EGFR exon20ins mutant, the BaF3 murine cell line was used (Warmuth et al., Curr Opin Oncol., 200719: 55-60). This cell line is dependent upon exogenous IL-3 for survival/growth but upon introduction of an oncogene, the cells no longer depend on exogenous IL-3, and instead survival is driven by the introduced oncogene. Thus, drugs that target the introduced oncogene will reduce BaF3 cell viability providing a mechanism to screen small molecules against relevant oncogenic mutations that arise in the clinic.
(§2) BaF3 cells harboring EGFR wild type (WT) or EGFR exon20 V769_D770insASV mutant were treated with increasing concentrations of MPC-0767 for 24 hours. After this time, cells were harvested for flow cytometry to assess cell surface EGFR expression (antibody for detection recognized both WT and mutant proteins). […] We further tested whether this finding translated to reduced survival in BaF3 cells expressing the EGFR mutant. Parental BaF3 cells (no mutant) or cells harboring EGFR exon20 V769_D770insASV were treated with increasing concentrations of MPC-0767 for 72 hours after which cell viability was determined using CellTiter-Glo®.

[5] = test system: BaF3 cells harboring EGFR exon20 V769_D770insASV; experiment: CellTiter-Glo cell viability; format: cell-based, murine
Text: as §1, §2

C[C@H](N)C(=O)O[C@@H](C)C(=O)N1CCC(CCn2c(Sc3cc4c(cc3Br)OCO4)nc3c(N)ncnc32)CC1 [MPC-0767]
viability of KDM6A sgRNA cells vs non-targeting sgRNA (MV-4-11 cells (FLT3-ITD)): conferred resistance to MPC-0767
effect on body weight [1]: without significant effects on body weight
tumor regression [1]: 84%
complete tumor regression (animals) ([1]; n=10): 5/10 and Five
inhibition of T cell activation [2]: dose-dependently reduce inhibition of T cell activation
PD-L1 expression on tumor infiltrating leukocytes [3]: significant reduction of PD-L1
increase in median survival ([4]; 75 mg/kg once a day): 1.5 days
increase in median survival ([4]; 150 mg/kg once a day): 10 days
EC50 (Parental BaF3 cells): 753 nM
EC50 ([5]; Mus musculus, BaF3 EGFR exon20 V769_D770insASV, 72 hours): 236 nM
sensitivity to MPC-0767 relative to parental cells ([5]; mutant vs parental BaF3, 72 hours): approximately 3 times
